Results published in publication PMC5626944 (Frontiers in Pharmacology, 2017).

Columns and labels:
Serotonin, 5HT4 = experiment: NovaScreen competition binding; conditions: 1 µM
Muscarinic, M1 (hr) = experiment: NovaScreen competition binding; design: species or system human; conditions: 1 µM
Neurokinin, NK1 = experiment: NovaScreen competition binding; conditions: 1 µM
Histamine, H3 = experiment: NovaScreen competition binding; conditions: 1 µM
Dopamine, D2s (h) = experiment: NovaScreen competition binding; design: species or system human; conditions: 1 µM
Neuropeptide, NPY2 (h) = tested on: T1, Neuropeptide, NPY2 (h); experiment: NovaScreen competition binding; design: species or system human; conditions: 1 µM
T1 construct: PerkinElmer – Caliper Life Sciences (NovaScreen service)

[1] = tested on: T2, Thromboxane A2 (h) [SQ 29,548]; experiment: NovaScreen competition binding; design: species or system human; conditions: 1 µM
T2 construct: PerkinElmer – Caliper Life Sciences (NovaScreen service)

Adrenergic, Alpha 2B = experiment: NovaScreen competition binding; conditions: 1 µM
[2] = tested on: Glutamate, AMPA Site (Ionotropic); experiment: NovaScreen competition binding; conditions: 1 µM
Adrenergic, Alpha 1B = tested on: T3, Adrenergic, Alpha 1B; experiment: NovaScreen competition binding; conditions: 1 µM
T3 construct: PerkinElmer – Caliper Life Sciences (NovaScreen service)

[3] = biological target: T4, Low-sensitivity α4(3)β2(2) nAChRs (Mus musculus, UniProt O70174+Q9ERK7); experiment: 86Rb+ efflux from thalamic and cortical synaptosomes, DhβE-insensitive component; type: biochemical
T4 construct: from tissue; host or cells: WT mouse thalamic and cortical synaptosomes
T4 sequence (O70174 31-629): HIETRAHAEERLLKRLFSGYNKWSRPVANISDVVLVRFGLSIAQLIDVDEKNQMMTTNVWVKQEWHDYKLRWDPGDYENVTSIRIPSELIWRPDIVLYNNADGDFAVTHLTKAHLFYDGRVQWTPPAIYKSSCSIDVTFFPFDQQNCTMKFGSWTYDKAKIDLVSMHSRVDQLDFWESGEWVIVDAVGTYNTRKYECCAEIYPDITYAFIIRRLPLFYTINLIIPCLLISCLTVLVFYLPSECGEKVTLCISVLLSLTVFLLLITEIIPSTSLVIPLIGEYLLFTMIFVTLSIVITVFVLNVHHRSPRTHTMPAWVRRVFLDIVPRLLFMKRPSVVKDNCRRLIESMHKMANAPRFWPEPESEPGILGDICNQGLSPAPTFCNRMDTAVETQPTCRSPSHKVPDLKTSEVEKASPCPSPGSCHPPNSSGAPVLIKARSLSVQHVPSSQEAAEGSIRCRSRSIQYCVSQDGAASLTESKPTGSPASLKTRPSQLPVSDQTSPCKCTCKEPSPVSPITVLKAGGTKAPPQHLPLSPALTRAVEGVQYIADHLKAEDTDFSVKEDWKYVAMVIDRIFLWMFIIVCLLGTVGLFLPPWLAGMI
T4 sequence (Q9ERK7 26-501): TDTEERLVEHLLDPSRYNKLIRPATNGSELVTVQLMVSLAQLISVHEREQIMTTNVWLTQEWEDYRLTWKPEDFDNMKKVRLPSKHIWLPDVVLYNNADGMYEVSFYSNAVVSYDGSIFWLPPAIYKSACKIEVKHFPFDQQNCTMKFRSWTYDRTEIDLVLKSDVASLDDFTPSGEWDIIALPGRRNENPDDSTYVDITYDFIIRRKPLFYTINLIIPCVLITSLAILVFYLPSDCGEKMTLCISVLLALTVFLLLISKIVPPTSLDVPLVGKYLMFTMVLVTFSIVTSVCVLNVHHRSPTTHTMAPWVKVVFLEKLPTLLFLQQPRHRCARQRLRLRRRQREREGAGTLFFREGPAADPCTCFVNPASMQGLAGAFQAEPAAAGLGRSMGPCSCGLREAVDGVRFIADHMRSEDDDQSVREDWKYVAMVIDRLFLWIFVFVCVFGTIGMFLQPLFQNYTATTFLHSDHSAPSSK
Experimental: Regions of interest were dissected from fresh mouse brains and homogenized in ice-cold isotonic sucrose (0.32 M), buffered with HEPES (5 mM, pH 7.5). The suspension was centrifuged at 12,000 × g for 20 min.

[4] = tested on: Glutamate, NMDA Agonist Site (Ionotropic); experiment: NovaScreen competition binding; conditions: 1 µM
Dopamine, D1 (h) = experiment: NovaScreen competition binding; design: species or system human; conditions: 1 µM
Bradykinin, BK2 = tested on: T5, Bradykinin, BK2; experiment: NovaScreen competition binding; conditions: 1 µM
T5 construct: PerkinElmer – Caliper Life Sciences (NovaScreen service)

Sigma 2 = experiment: NovaScreen competition binding; conditions: 1 µM
Human FMO3 = experiment: Turnover by human flavin-containing monooxygenase 3; type: in vitro ADME; conditions: 100 pmol/mL enzyme, 37 °C
Experimental: S2 Table. In vitro metabolism of TC299423, compared w ith varenicline.
Human Rat microsomes Turnover by human cytochrome P450 isoforms […]
The assay mixtures (final incubation volume of 125 μL) in 0.255 M phosphate buffer with 0.575% (w/v) KCl (pH 7.4) contained PiB (1.0 μM), […] a recombinantly expressed cytochrome P450 enzyme preparation (1A2, 2C9, 2C19, 2D6, 3A4, and FMO3) at 100 pmol/mL. After a 10 min preincubation at 37 °C, the reaction was initiated by addition of 2.0 mM NADPH and incubated for 60 min. The reactions were terminated by the addition of two volumes of DMSO. Samples were subsequently centrifuged at 4,000 rpm for 10 min. From the resulting supernatant, 10 μ L was analyzed by liquid chromatography/tandem mass spectrometry (LC-MS/MS). Control experiments were performed by substituting the active enzyme preparation by cell preparations containing no recombinant human CYP. a, Data for clearance are given as μL /min/mg protein. […]
c, Data for cytochrome P450 turnover and for human flavin- containing monooxygenase 3 (FMO3) are given as percent decline over 60 min.

Serotonin, 5HT6 (h) = experiment: NovaScreen competition binding; design: species or system human; conditions: 1 µM
male Wistar rats = experiment: Rat intravenous nicotine self-administration; type: in vivo; conditions: 0.01, 0.025, 0.05, 0.08 mg/kg ip, 20 min before session; nicotine 0.03 mg/kg/inf
Excerpt: Operant chambers (Med Associates, East Fairfield, VT, United States) were used for food delivery and the intravenous self-administration (IVSA) of nicotine.
For IV catheter implantation, the rats were anesthetized using 1–3% isoflurane inhalation in oxygen and surgically prepared with catheters in the left jugular vein ([Kenny et al., 2008]). The catheter was passed subcutaneously to a polyethylene assembly mounted on the animals’ back. Prior to training, rats were food-restricted so that their body weight was approximately ∼85% that of free-feeding rats. They were then trained to press an active lever for 45 mg food pellets on a fixed ratio 5 time-out 20 s (FR5TO20) schedule of reinforcement. […] Pressing this lever was recorded but was not associated with scheduled consequence. Rats were permitted to respond for food rewards until a reliable response was achieved, defined as >90 pellets earned per 1 h session for three consecutive sessions. Rats were then permitted to respond for food (n = 8) or for nicotine infusions (n = 9) during 1 h daily sessions under the FR5TO20 schedule. […]
Twenty min after injection, rats were placed in the operant boxes and responding for food rewards or nicotine infusions was recorded. […]

Dopamine, D4.4 (h) = experiment: NovaScreen competition binding; design: species or system human; conditions: 1 µM
Serotonin, 5HT2C = experiment: NovaScreen competition binding; conditions: 1 µM
[5] = tested on: Glutamate, MK-801 Site (Ionotropic); experiment: NovaScreen competition binding; conditions: 1 µM
Muscarinic, M4 (h) = experiment: NovaScreen competition binding; design: species or system human; conditions: 1 µM
Adrenergic, Beta 1 (h) = experiment: NovaScreen competition binding; design: species or system human; conditions: 1 µM

## C1=C(/c2cncnc2)CCCNCC/1 [TC299423, (E)-5-(pyrimidin-5-yl)-1,2,3,4,7,8-hexahydroazocine]
Serotonin, 5HT4
  Hit: FALSE
Serotonin, 5HT4; [3H]GR 113808
  Inhibition: -16.64%
Muscarinic, M1 (hr)
  Hit: FALSE
Muscarinic, M1 (hr); [3H]Scopolamine, N-Methyl
  Inhibition: -11.73%
Neurokinin, NK1
  Hit: FALSE
Neurokinin, NK1; [3H]Substance P
  Inhibition: 2.10%
Histamine, H3
  Hit: FALSE
Histamine, H3; [3H]N-a-MeHistamine
  Inhibition: 5.85%
Dopamine, D2s (h)
  Hit: FALSE
Dopamine, D2s (h); [3H]-Raclopride
  Inhibition: -21.17%
Neuropeptide, NPY2 (h)
  Hit: FALSE
Neuropeptide, NPY2 (h); [125I]-PYY
  Inhibition: 2.16%
[1]
  Hit: FALSE
[1]; 3H SQ 29,548
  Inhibition: 3.14%
Adrenergic, Alpha 2B
  Hit: FALSE
Adrenergic, Alpha 2B; [3H]MK-912
  Inhibition: -14.09%
[2]
  Hit: FALSE
[2]; [3H]AMPA
  Inhibition: -1.26%
Adrenergic, Alpha 1B
  Hit: FALSE
Adrenergic, Alpha 1B; [3H]-7-MeOxy-Prazosin
  Inhibition: -8.31%
[3]; Cortex
  86Rb+ efflux Efficacy: 39 ± 4%
  EC50: 26 ± 21 µM
[3]; Thalamus
  86Rb+ efflux Efficacy: 32 ± 10%
  EC50: 10 ± 10 µM
[4]
  Hit: FALSE
[4]; [3H]CGP 39653
  Inhibition: 5.51%
Dopamine, D1 (h)
  Hit: FALSE
Dopamine, D1 (h); [3H]-SCH23390
  Inhibition: -2.94%
Bradykinin, BK2
  Hit: FALSE
Bradykinin, BK2; [3H]Bradykinin
  Inhibition: 32.29%
Sigma 2
  Hit: FALSE
Sigma 2; [3H]-DTG
  Inhibition: -0.65%
Human FMO3
  Turnover by Human FMO3: 17 percent decline over 60 min
Serotonin, 5HT6 (h)
  Hit: FALSE
Serotonin, 5HT6 (h); [3H]-LSD
  Inhibition: 8.87%
Male Wistar rats
  Responding for nicotine infusions vs vehicle: no statistically significant changes
Dopamine, D4.4 (h)
  Hit: FALSE
Dopamine, D4.4 (h); [3H]-YM-09151-2
  Inhibition: -2.44%
Serotonin, 5HT2C
  Hit: FALSE
Serotonin, 5HT2C; [3H]Mesulergine
  Inhibition: -2.21%
[5]
  Hit: FALSE
[5]; [3H]MK-801
  Inhibition: 5.46%
Muscarinic, M4 (h)
  Hit: FALSE
Muscarinic, M4 (h); [3H]Scopolamine, N-Methyl
  Inhibition: -6.69%
Adrenergic, Beta 1 (h)
  Hit: FALSE
Adrenergic, Beta 1 (h); [125I] (-) Iodocyanopindolol
  Inhibition: 11.21%
